Experimental data: ChEMBL document CHEMBL1151886, “Synthesis and SAR of hydroxyethylamine based phenylcarboxyamides as inhibitors of BACE” (Bioorg Med Chem Lett, 2009)

Assays:
Beta-secretase 1 [1] = target: T1, Beta-secretase 1 (Homo sapiens, UniProt P56817); assay: Binding affinity to BACE assessed as displacement of [3H]BMS-599240; settings: read-out: IC50
Beta-secretase 1 [2] = target: T1, Beta-secretase 1; assay: Inhibition of BACE1 in human HEK293 cells overexpressing APP with Swedish mutation assessed as inhibition of amyloid beta 40 production; type: cell-based; settings: read-out: IC50

T1 sequence (P56817 whole entry): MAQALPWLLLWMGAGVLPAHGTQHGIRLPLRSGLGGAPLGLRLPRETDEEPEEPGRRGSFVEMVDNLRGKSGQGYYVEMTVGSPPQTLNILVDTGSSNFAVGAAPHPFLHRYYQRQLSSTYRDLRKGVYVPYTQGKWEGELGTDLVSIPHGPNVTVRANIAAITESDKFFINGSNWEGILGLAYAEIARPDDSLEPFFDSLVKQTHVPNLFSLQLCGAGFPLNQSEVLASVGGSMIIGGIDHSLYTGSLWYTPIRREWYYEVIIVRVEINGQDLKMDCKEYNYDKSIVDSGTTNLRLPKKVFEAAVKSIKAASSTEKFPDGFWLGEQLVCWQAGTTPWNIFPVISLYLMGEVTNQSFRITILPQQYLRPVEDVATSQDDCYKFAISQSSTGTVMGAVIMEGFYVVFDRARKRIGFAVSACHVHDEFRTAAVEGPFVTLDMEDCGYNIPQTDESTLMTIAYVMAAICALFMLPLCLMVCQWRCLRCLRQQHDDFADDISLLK

Compound	IC50 (Beta-secretase 1 [1])	IC50 (Beta-secretase 1 [2])
COc1cccc(CNC[C@@H](O)[C@H](Cc2cc(F)cc(F)c2)NC(=O)c2cccc(N(c3ccccc3)S(C)(=O)=O)c2)c1	11 nM	137 nM
CCCN(CCC)C(=O)c1cc(Oc2ccc(OC)cc2)cc(C(=O)N[C@@H](Cc2cc(F)cc(F)c2)[C@H](O)CNCc2cccc(OC)c2)c1	10 nM	412 nM
CO/N=C(\C)c1cc(C(=O)N[C@@H](Cc2cc(F)cc(F)c2)[C@H](O)CNCc2cccc(OC)c2)cc(N(c2ccccc2)S(C)(=O)=O)c1	10 nM	86 nM
CCCN(CCC)C(=O)c1cc(Oc2ccccc2)cc(C(=O)N[C@@H](Cc2cc(F)cc(F)c2)[C@H](O)CNCc2cccc(OC)c2)c1	10 nM	> 333 nM
COc1cccc(CNC[C@@H](O)[C@H](Cc2cc(F)cc(F)c2)NC(=O)c2cc(C(C)=O)cc(N(c3ccccc3)S(C)(=O)=O)c2)c1	17 nM	> 263 nM
CCCO/N=C(/C)c1cc(C(=O)N[C@@H](Cc2cc(F)cc(F)c2)[C@H](O)CNCc2cccc(OC)c2)cc(N(c2ccccc2)S(C)(=O)=O)c1	6 nM	184 nM
COc1cccc(CNC[C@@H](O)[C@H](Cc2cc(F)cc(F)c2)NC(=O)c2cc(/C(C)=N\OCc3ccccc3)cc(N(C)S(C)(=O)=O)c2)c1	9 nM	> 333 nM
C=CCO/N=C(/C)c1cc(C(=O)N[C@@H](Cc2cc(F)cc(F)c2)[C@H](O)CNCc2cccc(OC)c2)cc(N(C)S(C)(=O)=O)c1	151 nM	363 nM
COc1cccc(CNC[C@@H](O)[C@H](Cc2cc(F)cc(F)c2)NC(=O)c2cc(/C(C)=N\O)cc(N(c3ccccc3)S(C)(=O)=O)c2)c1	9 nM	91 nM
CCCN(CCC)C(=O)c1cc(Sc2ccc(OC)cc2)cc(C(=O)N[C@@H](Cc2cc(F)cc(F)c2)[C@H](O)CNCc2cccc(OC)c2)c1	27 nM	30 nM
CCCN(CCC)C(=O)c1cc(C(=O)N[C@@H](Cc2cc(F)cc(F)c2)[C@H](O)CNCc2cccc(OC)c2)cc(S(=O)(=O)c2ccccc2)c1	11 nM	148 nM
COc1cccc(CNC[C@@H](O)[C@H](Cc2cc(F)cc(F)c2)NC(=O)c2cc(/C(C)=N\OCc3ccccc3)cc(N(c3ccccc3)S(C)(=O)=O)c2)c1	12 nM	88 nM
CCCN(CCC)C(=O)c1cc(Sc2ccccc2)cc(C(=O)N[C@@H](Cc2cc(F)cc(F)c2)[C@H](O)CNCc2cccc(OC)c2)c1	13 nM	> 333 nM
CCCN(CCC)C(=O)c1cc(Oc2ccccc2OC)cc(C(=O)N[C@@H](Cc2cc(F)cc(F)c2)[C@H](O)CNCc2cccc(OC)c2)c1	54 nM	> 666 nM
C=CCO/N=C(/C)c1cc(C(=O)N[C@@H](Cc2cc(F)cc(F)c2)[C@H](O)CNCc2cccc(OC)c2)cc(N(c2ccccc2)S(C)(=O)=O)c1	27 nM	162 nM
CCCN(CCC)C(=O)c1cc(Oc2ccc(F)cc2)cc(C(=O)N[C@@H](Cc2cc(F)cc(F)c2)[C@H](O)CNCc2cccc(OC)c2)c1	22 nM	94 nM
CCCN(CCC)C(=O)c1cc(C(=O)N[C@@H](Cc2cc(F)cc(F)c2)[C@H](O)CNCc2cccc(OC)c2)cc(S(=O)(=O)c2ccc(OC)cc2)c1	12 nM	392 nM
COc1cccc(CNC[C@@H](O)[C@H](Cc2cc(F)cc(F)c2)NC(=O)c2cc(/C(C)=N\OCC(C)C)cc(N(C)S(C)(=O)=O)c2)c1	173 nM	> 666 nM
